{
  "source": "patent US20230189821A1",
  "about": "“PESTICIDAL COMPOSITIONS WITH ENHANCED PHYSICAL CHARACTERISTICS” (Terramera, Inc., priority 2020, published 2023)",
  "data": [
    {"experiment": "Melting point of oil/aliphatic acid mixtures by differential scanning calorimeter (DSC)", "type": "physicochemical", "description": "Eleven exemplary pesticidal compositions, each comprising a different mixture ratio of neem oil and octanoic acid, were prepared according to the following description. Each composition comprised a combined 10-20 mg of cold-pressed neem oil and octanoic acid. The neem oil and octanoic acid were passively mixed by commingling in liquid phase in the testing vessel (an aluminum pan with an aluminum cap) at a temperature above each ingredient's melting point. Mixture ratios were determined by weight—e.g. a 10 mg mixture in 60:40 ratio would comprise 6 mg of neem oil and 4 mg of octanoic acid. The mixture's melting point was then measured by a differential scanning calorimeter (DSC), and particularly by a TA Instruments® DSC Q2000™ differential scanning calorimeter. The following method was used for DSC measurement of each mixture: the mixture was equilibrated at 40° C., then isothermally held for 15 minutes, then equilibrated at −30° C., and then ramped at 5° C./minute to 70° C. […]\n(§1) Eleven exemplary pesticidal compositions, each comprising a different mixture ratio of palm oil and octanoic acid, were prepared according to the following description. […] Mixture ratios were determined by weight—e.g. a 10 mg mixture in 60:40 ratio would comprise 6 mg of palm oil and 4 mg of octanoic acid. The mixture's melting point was then measured by differential scanning calorimeter. […]\nas §1, with “coconut” for “palm”\nas §1, with “karanja” for “palm”, “acid.” for “acid. The mixture's melting point was then measured by differential scanning calorimeter.”", "values": [
      {"compound": "CCCCCCCCCC(=O)O", "note": "[decanoic acid]", "Melting Point": "about 11.36 °C"},
      {"compound": "CCCCCCCC/C=C\\CCCCCCCC(=O)O", "note": "[oleic acid]", "Melting Point": "about 11.31 °C"},
      {"compound": "CC/C=C/CC(=O)O", "note": "[trans-3 hexenoic acid]", "Melting Point": "about 11.36 °C"}
    ]}
  ]
}
